Holding throughout (type): biochemical
For test [1], the target named is T1, recombinant alpha-glucosidase II (murine full-length glucosidase II, alpha and beta subunits, Glu 2) (Mus musculus, UniProt Q8BHN3).
T1 construct: made in house; host or cells: HEK-293T cells transduced with BacMam viruses (75% alpha, 25% beta); protein harvested from culture supernatant
In words: Alpha-glucosidase II assay (4-methylumbelliferyl-alpha-D-pyranoside substrate, fluorescence). To be noted: Glucosidase 2; read-out: Glu2 IC50.

Test [2] has as its target rat sucrase (partially purified alpha-glucosidase from intestinal rat powder) (Rattus norvegicus, UniProt P23739). In words: Intestinal alpha-glucosidase assay, sucrose substrate (Glucose GO Kit). An outline of the steps: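 Partially purified alpha-glucosidase from rat intestinal powder was preincubated 60 min at 37 °C with serial compound dilutions, then given maltose or sucrose and incubated 30 min at 37 °C.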

Test [3] has as its target T2, recombinant human GBA (beta-glucocerebrosidase) (Homo sapiens, UniProt P04062).
T2 sequence (P04062 40-536): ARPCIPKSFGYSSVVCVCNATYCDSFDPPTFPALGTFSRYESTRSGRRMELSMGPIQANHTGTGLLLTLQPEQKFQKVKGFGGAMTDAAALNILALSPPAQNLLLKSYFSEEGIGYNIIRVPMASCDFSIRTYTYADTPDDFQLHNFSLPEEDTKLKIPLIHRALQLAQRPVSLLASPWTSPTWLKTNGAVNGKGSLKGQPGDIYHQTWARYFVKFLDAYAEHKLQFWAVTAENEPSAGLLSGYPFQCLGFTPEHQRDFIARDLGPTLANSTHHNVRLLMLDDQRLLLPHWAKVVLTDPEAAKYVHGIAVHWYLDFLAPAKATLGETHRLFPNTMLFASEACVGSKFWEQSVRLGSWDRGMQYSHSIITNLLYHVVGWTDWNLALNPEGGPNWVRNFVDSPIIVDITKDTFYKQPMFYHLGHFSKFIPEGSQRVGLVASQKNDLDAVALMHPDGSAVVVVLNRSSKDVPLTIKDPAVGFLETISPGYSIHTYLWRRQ
The test is described as follows: Beta-glucocerebrosidase (GBA, glucosylceramidase) assay (4-methylumbelliferyl-beta-D-pyranoside substrate, fluorescence). The gist of the method: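 IC50 by four-parameter fit of percent inhibition, with product fluorescence (365/440 nm) read after a glycine/NaOH pH 10 stop. Compound and commercial recombinant human enzyme were incubated 60 min at 37 °C before a further 60 min at 37 °C with 4-methylumbelliferyl-beta-D-pyranoside substrate.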

Test [4] addresses rat maltase (partially purified alpha-glucosidase from intestinal rat powder). In words: Intestinal alpha-glucosidase assay, maltose substrate (Glucose GO Kit). The gist of the method: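 Glucose release is the read-out: compounds at multiple dilutions are first held with partially purified rat intestinal alpha-glucosidase for 60 min at 37 °C, after which maltose or sucrose substrate reacts for 30 min at 37 °C before a 5 min 90 °C stop. IC50 comes from a four-parameter logistic fit.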

Test [5] has as its target recombinant human GAA (acid alpha-glucosidase) (Homo sapiens, UniProt P10253). The test is described as follows: Acid alpha-glucosidase (GAA) assay (4-methylumbelliferyl-alpha-D-pyranoside substrate, fluorescence). The gist of the method: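 IC50 from 4-PL curve fit of percent inhibition, based on fluorescence (365/440 nm) of released methylumbelliferone relative to uninhibited enzyme. Compound dilutions and human GAA incubated 60 min, 37 °C, before 20 min substrate reaction at 37 °C, quenched at pH 10.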

The record followed here is patent US20250197372A1 (priority 2020, published 2025).

rat sucrase (partially purified alpha-glucosidase from intestinal rat powder), sequence (P23739 whole entry): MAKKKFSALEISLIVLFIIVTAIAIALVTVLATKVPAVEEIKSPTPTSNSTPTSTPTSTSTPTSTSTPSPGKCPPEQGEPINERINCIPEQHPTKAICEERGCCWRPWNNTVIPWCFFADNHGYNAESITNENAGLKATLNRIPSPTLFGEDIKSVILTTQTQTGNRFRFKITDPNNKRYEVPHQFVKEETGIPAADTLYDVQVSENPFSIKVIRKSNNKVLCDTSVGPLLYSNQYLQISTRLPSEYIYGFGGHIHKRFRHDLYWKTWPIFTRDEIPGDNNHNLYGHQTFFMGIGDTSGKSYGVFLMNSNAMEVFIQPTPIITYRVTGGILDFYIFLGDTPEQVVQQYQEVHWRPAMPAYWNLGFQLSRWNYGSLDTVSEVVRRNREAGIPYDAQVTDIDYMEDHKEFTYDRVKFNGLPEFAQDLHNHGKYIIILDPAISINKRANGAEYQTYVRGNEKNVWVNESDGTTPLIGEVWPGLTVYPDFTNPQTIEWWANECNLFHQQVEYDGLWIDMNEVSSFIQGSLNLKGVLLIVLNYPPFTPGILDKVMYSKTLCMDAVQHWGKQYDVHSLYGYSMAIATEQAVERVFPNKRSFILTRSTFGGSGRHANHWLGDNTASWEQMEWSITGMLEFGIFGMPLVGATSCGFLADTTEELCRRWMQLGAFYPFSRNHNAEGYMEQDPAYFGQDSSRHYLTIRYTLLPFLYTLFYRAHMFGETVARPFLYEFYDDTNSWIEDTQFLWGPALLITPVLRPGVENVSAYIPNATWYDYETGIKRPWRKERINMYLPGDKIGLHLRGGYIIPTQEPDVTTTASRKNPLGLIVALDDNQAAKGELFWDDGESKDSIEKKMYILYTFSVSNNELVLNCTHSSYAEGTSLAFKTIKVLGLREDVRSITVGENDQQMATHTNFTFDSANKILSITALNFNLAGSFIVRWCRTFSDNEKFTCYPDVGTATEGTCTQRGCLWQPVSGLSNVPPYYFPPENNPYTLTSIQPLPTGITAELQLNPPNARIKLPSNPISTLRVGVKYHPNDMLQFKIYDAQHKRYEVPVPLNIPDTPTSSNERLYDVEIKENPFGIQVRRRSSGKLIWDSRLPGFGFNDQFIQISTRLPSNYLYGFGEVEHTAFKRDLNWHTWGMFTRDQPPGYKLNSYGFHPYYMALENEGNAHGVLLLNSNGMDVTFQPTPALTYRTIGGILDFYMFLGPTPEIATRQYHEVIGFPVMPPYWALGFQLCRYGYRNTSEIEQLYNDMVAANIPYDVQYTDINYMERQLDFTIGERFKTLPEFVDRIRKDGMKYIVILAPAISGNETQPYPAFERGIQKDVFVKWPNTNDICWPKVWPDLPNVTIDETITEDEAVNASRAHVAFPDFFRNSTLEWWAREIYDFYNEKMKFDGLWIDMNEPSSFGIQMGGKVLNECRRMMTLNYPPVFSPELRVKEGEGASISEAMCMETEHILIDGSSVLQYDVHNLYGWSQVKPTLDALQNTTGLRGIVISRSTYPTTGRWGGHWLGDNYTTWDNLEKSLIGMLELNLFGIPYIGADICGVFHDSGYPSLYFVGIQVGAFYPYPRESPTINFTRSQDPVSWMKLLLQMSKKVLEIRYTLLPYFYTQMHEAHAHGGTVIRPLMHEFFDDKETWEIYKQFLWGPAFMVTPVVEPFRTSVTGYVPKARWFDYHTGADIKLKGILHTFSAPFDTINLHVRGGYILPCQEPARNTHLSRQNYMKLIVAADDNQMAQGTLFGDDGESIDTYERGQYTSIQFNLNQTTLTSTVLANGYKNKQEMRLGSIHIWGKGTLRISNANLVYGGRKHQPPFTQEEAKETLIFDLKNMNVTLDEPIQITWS
T1 sequence (O08795 15-521): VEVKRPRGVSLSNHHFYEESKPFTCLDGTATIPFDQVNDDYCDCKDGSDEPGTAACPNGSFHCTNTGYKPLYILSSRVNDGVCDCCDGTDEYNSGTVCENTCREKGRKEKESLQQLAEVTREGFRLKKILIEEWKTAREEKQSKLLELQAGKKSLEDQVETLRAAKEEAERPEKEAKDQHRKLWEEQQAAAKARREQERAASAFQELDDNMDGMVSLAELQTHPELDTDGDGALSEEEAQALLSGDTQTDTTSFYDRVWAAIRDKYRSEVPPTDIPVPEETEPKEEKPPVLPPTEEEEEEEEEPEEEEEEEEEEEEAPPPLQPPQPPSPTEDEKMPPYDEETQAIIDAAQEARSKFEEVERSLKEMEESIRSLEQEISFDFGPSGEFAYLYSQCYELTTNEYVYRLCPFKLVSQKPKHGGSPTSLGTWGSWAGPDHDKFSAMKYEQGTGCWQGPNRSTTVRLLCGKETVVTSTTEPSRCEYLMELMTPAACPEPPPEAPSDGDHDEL
T1 sequence (Q8BHN3 33-944): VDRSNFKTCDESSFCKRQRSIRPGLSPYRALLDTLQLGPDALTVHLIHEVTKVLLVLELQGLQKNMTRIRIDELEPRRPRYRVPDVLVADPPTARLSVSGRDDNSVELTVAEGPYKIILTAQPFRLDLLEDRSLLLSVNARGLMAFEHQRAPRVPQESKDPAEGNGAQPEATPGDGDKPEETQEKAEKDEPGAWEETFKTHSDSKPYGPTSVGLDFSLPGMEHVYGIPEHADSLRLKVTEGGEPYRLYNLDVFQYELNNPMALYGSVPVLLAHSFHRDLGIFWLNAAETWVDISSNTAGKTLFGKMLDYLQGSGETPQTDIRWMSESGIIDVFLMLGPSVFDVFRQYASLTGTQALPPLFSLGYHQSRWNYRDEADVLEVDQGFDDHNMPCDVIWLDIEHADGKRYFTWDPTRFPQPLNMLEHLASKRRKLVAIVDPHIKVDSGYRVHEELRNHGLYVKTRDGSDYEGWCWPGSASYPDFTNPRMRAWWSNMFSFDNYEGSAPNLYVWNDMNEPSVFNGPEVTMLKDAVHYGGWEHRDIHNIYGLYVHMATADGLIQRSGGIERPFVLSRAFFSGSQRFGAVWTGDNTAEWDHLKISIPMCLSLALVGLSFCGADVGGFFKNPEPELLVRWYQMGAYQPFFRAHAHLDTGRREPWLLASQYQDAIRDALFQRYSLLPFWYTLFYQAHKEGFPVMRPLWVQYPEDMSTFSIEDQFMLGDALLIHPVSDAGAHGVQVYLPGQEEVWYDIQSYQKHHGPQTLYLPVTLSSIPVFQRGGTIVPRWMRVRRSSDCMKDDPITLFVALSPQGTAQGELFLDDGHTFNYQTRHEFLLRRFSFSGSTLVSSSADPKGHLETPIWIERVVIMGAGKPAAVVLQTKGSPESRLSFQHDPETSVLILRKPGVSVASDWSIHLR

For the compound `[N-]=[N+]=Nc1ccc(NCc2ccc(-c3ccc(CN4C[C@H](O)[C@@H](O)[C@H](O)[C@H]4CO)cc3)cc2)c([N+](=O)[O-])c1` [Compound 1166, (2R,3R,4R,5S)-1-[(4′-{[(4-azido-2-nitrophenyl)amino]methyl}-[1,1′-biphenyl]-4-yl)methyl]-2-(hydroxymethyl)piperidine-3,4,5-triol], the IC50 (commonly the concentration at which inhibition is half-maximal) is 2010 nM in test [1]; 156 nM in test [2]; 5.63 µM in test [3]; less than 1 nM in test [4]; 1380 nM in test [5].

On to `[N-]=[N+]=Nc1ccc(NCc2cccc(CN3C[C@H](O)[C@@H](O)[C@H](O)[C@H]3CO)c2)c([N+](=O)[O-])c1` [Compound 1169, (2R,3R,4R,5S)-1-[(3-{[(4-azido-2-nitrophenyl)amino]methyl}phenyl)methyl]-2-(hydroxymethyl)piperidine-3,4,5-triol], for which the IC50 is 16100 nM in test [1]; less than 1 nM in test [2]; 83.5 µM in test [3]; less than 1 nM in test [4]; 420 nM in test [5].

For the compound `[N-]=[N+]=Nc1ccc(NCc2ccc(CN3C[C@H](O)[C@@H](O)[C@H](O)[C@H]3CO)cc2)c([N+](=O)[O-])c1` [Compound 1170, (2R,3R,4R,5S)-1-[(4-{[(4-azido-2-nitrophenyl)amino]methyl}phenyl)methyl]-2-(hydroxymethyl)piperidine-3,4,5-triol], the IC50 is less than 1 nM in test [1]; 2 nM in test [2]; 29.9 µM in test [3]; less than 1 nM in test [4]; 81 nM in test [5].

As to `[N-]=[N+]=Nc1ccc(NCCc2cc(CCN3C[C@H](O)[C@@H](O)[C@H](O)[C@H]3CO)ccc2C2CCCCC2)c([N+](=O)[O-])c1` [Compound 1171, (2R,3R,4R,5S)-1-[2-(3-{2-[(4-azido-2-nitrophenyl)amino]ethyl}-4-cyclohexylphenyl)ethyl]-2-(hydroxymethyl)piperidine-3,4,5-triol], the IC50 in test [1] is 1010 nM; in test [2] it was 10700 nM; in test [3], 0.204 µM; in test [4], 5660 nM; in test [5], 2080 nM.

In the case of `[N-]=[N+]=Nc1ccc(NCCc2ccc(CCN3C[C@H](O)[C@@H](O)[C@H](O)[C@H]3CO)c3c2OCCO3)c([N+](=O)[O-])c1` [Compound 1173, (2R,3R,4R,5S)-1-[2-(8-{2-[(4-azido-2-nitrophenyl)amino]ethyl}-2,3-dihydro-1,4-benzodioxin-5-yl)ethyl]-2-(hydroxymethyl)piperidine-3,4,5-triol], the IC50 in test [1] was 666 nM; in test [2] it was 456 nM; in test [3] it was 5.32 µM; in test [4] it was 48 nM; in test [5], 1800 nM.

In the case of `[N-]=[N+]=Nc1ccc(NCc2cc(CCN3C[C@H](O)[C@@H](O)[C@H](O)[C@H]3CO)cs2)c([N+](=O)[O-])c1` [Compound 1174, (2R,3R,4R,5S)-1-[2-(5-{[(4-azido-2-nitrophenyl)amino]methyl}thiophen-3-yl)ethyl]-2-(hydroxymethyl)piperidine-3,4,5-triol], the IC50 was less than 1 nM in test [1]; 1 nM in test [2]; 0.805 µM in test [3]; less than 1 nM in test [4]; 230 nM in test [5].

On to `[N-]=[N+]=Nc1ccc(NCCn2cc(CCN3C[C@H](O)[C@@H](O)[C@H](O)[C@H]3CO)c3ccccc32)c([N+](=O)[O-])c1` [Compound 1177, (2R,3R,4R,5S)-1-[2-(1-{2-[(4-azido-2-nitrophenyl)amino]ethyl}-1H-indol-3-yl)ethyl]-2-(hydroxymethyl)piperidine-3,4,5-triol], for which the IC50 in test [1] is 65 nM; in test [2], 883 nM; in test [3], 3.32 µM; in test [4], 32 nM; in test [5] it was 5540 nM.

Take `[N-]=[N+]=Nc1ccc(NCCc2cc(CCN3C[C@H](O)[C@@H](O)[C@H](O)[C@H]3CO)cs2)c([N+](=O)[O-])c1` [Compound 1179, (2R,3R,4R,5S)-1-[2-(5-{2-[(4-azido-2-nitrophenyl)amino]ethyl}thiophen-3-yl)ethyl]-2-(hydroxymethyl)piperidine-3,4,5-triol]: the IC50 was less than 1 nM in test [1]; 181 nM in test [2]; 0.38 µM in test [3]; 1 nM in test [4]; 692 nM in test [5].

Turning to `COc1cc(CN2CCCO2)cc(NCCCCCCN2C[C@H](O)[C@@H](O)[C@H](O)[C@H]2CO)c1` [Compound 1182, (2R,3R,4R,5S)-2-(hydroxymethyl)-1-[6-({3-methoxy-5-[(1,2-oxazolidin-2-yl)methyl]phenyl}amino)hexyl]piperidine-3,4,5-triol], the IC50 in test [1] was found to be 2 nM; in test [2], 179 nM; in test [3], 6.13 µM; in test [4] it was 26 nM; in test [5], 33 nM.

Take `OC[C@@H]1[C@@H](O)[C@H](O)[C@@H](O)CN1CCCCCCNc1cc(Cl)cc(CN2CCCO2)c1` [Compound 1183, (2R,3R,4R,5S)-1-[6-({3-chloro-5-[(1,2-oxazolidin-2-yl)methyl]phenyl}amino)hexyl]-2-(hydroxymethyl)piperidine-3,4,5-triol]: the IC50 in test [1] was determined as 4 nM; in test [2] it was 94 nM; in test [3] it was 5.62 µM; in test [4], 15 nM; in test [5] it was 90 nM.

For `O=Cc1cc(-c2ncccn2)ccc1NCCCCCCN1C[C@H](O)[C@@H](O)[C@H](O)[C@H]1CO` [Compound 1184, 5-(pyrimidin-2-yl)-2-({6-[(2R,3R,4R,5S)-3,4,5-trihydroxy-2-(hydroxymethyl)piperidin-1-yl]hexyl}amino)benzaldehyde], the half-inhibitory concentration (IC50) in test [1] worked out at 1 nM; in test [2] it was 65 nM; in test [3], 0.95 µM; in test [4], 6 nM; in test [5], 48 nM.

In the case of `[N-]=[N+]=Nc1ccc(NCCc2ccc(CCN3C[C@H](O)[C@@H](O)[C@H](O)[C@H]3CO)s2)c([N+](=O)[O-])c1` [Compound 1186, (2R,3R,4R,5S)-1-[2-(5-{2-[(4-azido-2-nitrophenyl)amino]ethyl}hiophen-2-yl)ethyl]-2-(hydroxymethyl)piperidine-3,4,5-triol], the concentration for half-maximal inhibition (IC50) in test [1] was found to be 1 nM; in test [2] it was 175 nM; in test [3] it was 1.28 µM; in test [4], 5 nM; in test [5], 263 nM.

As for `[N-]=[N+]=Nc1ccc(NCCc2cncc(CCN3C[C@H](O)[C@@H](O)[C@H](O)[C@H]3CO)n2)c([N+](=O)[O-])c1` [Compound 1187, (2R,3R,4R,5S)-1-[2-(6-{2-[(4-azido-2-nitrophenyl)amino]ethyl}pyrazin-2-yl)ethyl]-2-(hydroxymethyl)piperidine-3,4,5-triol], the IC50 in test [1] amounted to 3 nM; in test [2], 2050 nM; in test [3], 16.4 µM; in test [4], 1200 nM; in test [5] it was 615 nM.

As for `[N-]=[N+]=Nc1ccc(NCCc2nccc(CCN3C[C@H](O)[C@@H](O)[C@H](O)[C@H]3CO)n2)c([N+](=O)[O-])c1` [Compound 1188, (2R,3R,4R,5S)-1-[2-(2-{2-[(4-azido-2-nitrophenyl)amino]ethyl}pyrimidin-4-yl)ethyl]-2-(hydroxymethyl)piperidine-3,4,5-triol], the half-inhibitory concentration (IC50) in test [1] came out at 1140 nM; in test [2] it was 783 nM; in test [3] it was 9.05 µM; in test [4], 164 nM; in test [5], 838 nM.

Consider `[N-]=[N+]=Nc1ccc(NCCc2cnn(CCN3C[C@H](O)[C@@H](O)[C@H](O)[C@H]3CO)c2)c([N+](=O)[O-])c1` [Compound 1191, (2R,3R,4R,5S)-1-[2-(4-{2-[(4-azido-2-nitrophenyl)amino]ethyl}-1H-pyrazol-1-yl)ethyl]-2-(hydroxymethyl)piperidine-3,4,5-triol], for which the IC50 was 20300 nM in test [1]; 2010 nM in test [2]; 28.6 µM in test [3]; 171 nM in test [4]; 2740 nM in test [5].
